Where a name gives a salt, the structure may show the parent alone.

For this assay, the target named is T1, h P2X3 (Homo sapiens, UniProt P56373).
T1 sequence (P56373 1-397): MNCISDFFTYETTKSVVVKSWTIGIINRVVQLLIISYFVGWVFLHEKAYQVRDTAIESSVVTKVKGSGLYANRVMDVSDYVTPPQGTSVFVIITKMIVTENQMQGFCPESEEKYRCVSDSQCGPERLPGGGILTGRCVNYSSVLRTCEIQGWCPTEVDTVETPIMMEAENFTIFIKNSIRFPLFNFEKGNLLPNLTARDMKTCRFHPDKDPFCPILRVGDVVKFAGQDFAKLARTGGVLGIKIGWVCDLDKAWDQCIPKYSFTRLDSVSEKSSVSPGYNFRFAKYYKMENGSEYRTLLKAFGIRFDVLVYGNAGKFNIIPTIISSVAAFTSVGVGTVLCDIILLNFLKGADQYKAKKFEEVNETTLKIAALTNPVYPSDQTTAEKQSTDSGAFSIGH
Briefly: In vitro electrophysiology assay for P2X3 (automated whole-cell patch clamp, Sophion Qube). It is filed as cell-based. The following applies: Table 6; range of activity; inhibition of P2X3 current, agonist α,β-MeATP (800 nM). As to the method:
Pharmacological Activity of the Compounds of the Invention In Vitro Electrophysiology Assay for P2X3
Cells expressing P2X3 receptors were grown according to standard practice and maintained at 37° C. in a 5% humidified CO2 atmosphere. The cells were seeded into T175 flask 2 days prior to the day of the assay and dissociated from the flasks using TrypLE when grown to confluence of 80-90%. The dissociated cells were resuspended in serum free media at a cell density of 3×10^6 cells/ml and loaded onto the Sophion Qube automated patch-clamp system. The extracellular assay buffer contained 145 mM NaCl, 4 mM KCl, 2 mM CaCl2), 1 mM MgCl2, 10 mM HEPES, and 10 mM glucose at pH 7.4. The intracellular assay solution contained 140 mM CsF, 10 mM NaCl, 10 mM EGTA, 10 mM HEPES at pH 7.2. Agonist stock solutions were prepared in H2O and diluted in bath solution prior to use. All antagonists were prepared as 10 mM stock solutions in DMSO and diluted in bath solution prior to use. All experiments were performed under the whole-cell patch clamp configuration at room temperature with 384 individual cells being voltage clamped at −60 mV simultaneously on the Sophion Qube instrument. Two baseline responses were established with the application of α,β-MeATP (800 nM), with the subsequent agonist applications being washed out using extracellular assay buffer containing 0.5 U/ml apyrase. Following the second agonist application, antagonist was incubated in the absence of α,β-MeATP for 10 minutes. After antagonist preincubation, 800 nM α,β-MeATP and antagonist were co-administered to determine the inhibitory effect of the antagonist. One concentration of an antagonist was assessed against a single cell, with different concentrations of the antagonist applied to other cells on the 384 recording substrate. The control P2X3 current amplitude was taken from the peak current amplitude from the second agonist response prior to preincubation with antagonist. The peak P2X3 current amplitude in the presence of antagonist was used to calculate the inhibitory effect at each concentration of the antagonist according to the following equation: […]
Concentration-response curves were constructed from ten different concentrations with each concentration of antagonist tested on at least two individual cells. The concentration of the antagonist to inhibit P2X3 current by 50% (IC50) was determined by fitting the data with the following equation: […]
Where ‘a’ is minimum response, ‘b’ is maximum response, ‘c’ is IC50 and ‘d’ is Hill slope.
The results for individual compounds are provided below in Table 6 and are expressed as range of activity.
The activity of the comparative examples A and B have been tested in the in vitro Electrophysiology Assay for P2X3 as described above.
In the case of `Cc1ccc(-c2cc(OC3CCOCC3)c3ncnc(NC(C)c4nnc(C)s4)c3c2)nc1` (single isomer, unassigned) [Example 84, 6-(5-methyl-2-pyridyl)-N-[1-(5-methyl-1,3,4-thiadiazol-2-yl)ethyl]-8-tetrahydropyran-4-yloxy-quinazolin-4-amine], the IC50 was < 0.316 µM.

For the compound `Cc1cnc(-c2cc(OC3CCOCC3)c3ncnc(NC(C)c4ccc(C)nn4)c3c2)nc1` (single isomer, unassigned) [Example 29, N-[1-(6-methylpyridazin-3-yl)ethyl]-6-(5-methylpyrimidin-2-yl)-8-tetrahydropyran-4-yloxy-quinazolin-4-amine], the 50% inhibitory concentration (IC50) lay in the range of 0.316 to 3.16 µM.

With `COc1cc(-c2ncc(C)s2)cc2c(NCc3ccc(F)cn3)ncnc12` [Example 119, N-((5-fluoropyridin-2-yl)methyl)-8-methoxy-6-(5-methylthiazol-2-yl)quinazolin-4-amine], the IC50 was < 0.316 µM.

Consider `Cc1ccc(CNc2ncnc3c(OC4COC4)cc(-c4ccc(F)cc4)cc23)nn1` [Example 74, 6-(4-fluorophenyl)-N-((6-methylpyridazin-3-yl)methyl)-8-(oxetan-3-yloxy)quinazolin-4-amine], for which the IC50 lay within 3.16 to 31.6 µM.

Compound `COc1cc(-c2ncc(C)cn2)cc2c(NC(C)c3nnc(C)o3)ncnc12` (single isomer, unassigned) [Example 128] displayed a half-maximal inhibitory concentration (IC50) of 3.16 to 31.6 µM.

Turning to `COc1cc(-c2ccc(C)cn2)cc2c(NCc3cc(C)on3)ncnc12` [Example 139, 8-methoxy-N-[(5-methylisoxazol-3-yl)methyl]-6-(5-methyl-2-pyridyl)quinazolin-4-amine], the half-maximal inhibitory concentration (IC50) was < 0.316 µM.

`Cc1ccc(CNc2ncnc3c(OCCO)cc(-c4ncc(C)s4)cc23)nn1` [Example 36, 2-((4-(((6-methylpyridazin-3-yl)methyl)amino)-6-(5-methylthiazol-2-yl)quinazolin-8-yl)oxy)ethan-1-ol]: the IC50 was < 0.316 µM.

`COc1cc(-c2ccc(F)cn2)cc2c(NC(C)c3ccc(C(F)(F)F)nn3)ncnc12` (single isomer, unassigned) [Example 170, 6-(5-fluoro-2-pyridyl)-8-methoxy-N-[1-[6-(trifluoromethyl)pyridazin-3-yl]ethyl]quinazolin-4-amine] gave an IC50 of 0.316 to 3.16 µM.

The compound `COc1cc(-n2ccc(Cl)n2)cc2c(NC(C)c3ccc(C)nn3)ncnc12` (stereo not drawn) [Example 96, 6-(3-chloro-1H-pyrazol-1-yl)-8-methoxy-N-(1-(6-methylpyridazin-3-yl)ethyl)quinazolin-4-amine] registered an IC50 of 0.316 to 3.16 µM.

On to `COc1cc(-n2ccc(Cl)n2)cc2c(NC(C)c3cnc(C(F)(F)F)nc3)ncnc12` (stereo not drawn) [Example 95, 6-(3-Chloro-1H-pyrazol-1-yl)-8-methoxy-N-(1-(2-(trifluoromethyl)pyrimidin-5-yl)ethyl)quinazolin-4-amine], for which the IC50 is < 0.316 µM.

As for `COc1cc(-c2ccc(C)cn2)cc2c(NC(C)c3nnc(C)s3)ncnc12` (single isomer, unassigned) [Example 126, 8-methoxy-6-(5-methyl-2-pyridyl)-N-[1-(5-methyl-1,3,4-thiadiazol-2-yl)ethyl]quinazolin-4-amine], the 50% inhibitory concentration (IC50) lay in the range of 3.16 to 31.6 µM.

On to `COc1cc(-c2ncc(C)cn2)cc2c(NC(C)c3ccc(C(F)(F)F)nn3)ncnc12` (single isomer, unassigned) [Example 120, 8-methoxy-6-(5-methylpyrimidin-2-yl)-N-[1-[6-(trifluoromethyl)pyridazin-3-yl]ethyl]quinazolin-4-amine], for which the IC50 is < 0.316 µM.

In turn, `COc1cc(-c2ccc(F)cn2)cc2c(NCc3nnc(C)o3)ncnc12` [Example 134, 6-(5-fluoropyridin-2-yl)-8-methoxy-N-((5-methyl-1,3,4-oxadiazol-2-yl)methyl)quinazolin-4-amine] returned an IC50 of 0.316 to 3.16 µM.

`COc1cc(-c2ncc(C)cn2)cc2c(NC(C)c3nc(-c4ccncc4)no3)ncnc12` (single isomer, unassigned) [Example 167, 8-methoxy-6-(5-methylpyrimidin-2-yl)-N-(1-(3-(pyridin-4-yl)-1,2,4-oxadiazol-5-yl)ethyl)quinazolin-4-amine] displayed an IC50 of 0.316 to 3.16 µM.

`Cc1ccc([C@@H](C)Nc2ncnc3c(OC4CCOCC4)cc(-c4ccn(C)n4)cc23)nn1` [Example 32, (R)-6-(1-methyl-1H-pyrazol-3-yl)-N-(1-(6-methylpyridazin-3-yl)ethyl)-8-((tetrahydro-2H-pyran-4-yl)oxy)quinazolin-4-amine] showed a half-inhibitory concentration (IC50) of 0.316 to 3.16 µM.

Compound `COc1cc(-c2ncc(C)cn2)cc2c(NC(C)c3nc(C)no3)ncnc12` (single isomer, unassigned) [Example 122, 8-Methoxy-N-[1-(3-methyl-1,2,4-oxadiazol-5-yl)ethyl]-6-(5-methylpyrimidin-2-yl)quinazolin-4-amine] showed an IC50 of 3.16 to 31.6 µM.

Regarding `C[C@@H](Nc1ncnc2c(OC3CC4CC3CN4)cc(-c3ccc(F)cc3)cc12)c1cnc(C(F)(F)F)nc1` (stereo partly drawn) [Example 41, 8-((2-azabicyclo[2.2.1]heptan-5-yl)oxy)-6-(4-fluorophenyl)-N-((R)-1-(2-(trifluoromethyl)pyrimidin-5-yl)ethyl)quinazolin-4-amine], the IC50 was < 0.316 µM.

`COc1cc(-n2cc(F)cn2)cc2c(N[C@H](C)c3cnc(C(F)(F)F)nc3)ncnc12` [Example 97, (R)-6-(4-fluoro-1H-pyrazol-1-yl)-8-methoxy-N-(1-(2-(trifluoromethyl)pyrimidin-5-yl)ethyl)quinazolin-4-amine]: the IC50 fell in the range of 0.316 to 3.16 µM.

The compound `COc1cc(-c2ncc(F)cn2)cc2c(N[C@H](C)c3ccc(C)nn3)ncnc12` [Example 4] showed an IC50 of 0.316 to 3.16 µM.

`CNS(=O)(=O)c1cc(-c2ccc(F)cc2)cc2c(N[C@H](C)c3nnc(C)s3)ncnc12` [Example 21] returned a concentration for half-maximal inhibition (IC50) of 0.316 to 3.16 µM.

On to `Cc1cnc(-c2cc(OCC(=O)O)c3ncnc(NCc4ccc(C)nn4)c3c2)nc1` [Example 55, 2-((4-(((6-methylpyridazin-3-yl)methyl)amino)-6-(5-methylpyrimidin-2-yl)quinazolin-8-yl)oxy)acetic acid dihydrochloride], for which the half-inhibitory concentration (IC50) is < 0.316 µM.

Turning to `COCCOc1cc(-c2ncc(C)s2)cc2c(NCc3ccc(C)nn3)ncnc12` [Example 35, 8-(2-methoxyethoxy)-N-((6-methylpyridazin-3-yl)methyl)-6-(5-methylthiazol-2-yl)quinazolin-4-amine], the half-maximal inhibitory concentration (IC50) was < 0.316 µM.

In the case of `C[C@@H](Nc1ncnc2c(C3CCOCC3)cc(-c3ccc(F)cc3)cc12)c1cnc(C(F)(F)F)nc1` [Example 26, (R)-6-(4-fluorophenyl)-8-(tetrahydro-2H-pyran-4-yl)-N-(1-(2-(trifluoromethyl)pyrimidin-5-yl)ethyl)quinazolin-4-amine], the concentration for half-maximal inhibition (IC50) lay in the range of 0.316 to 3.16 µM.

Compound `COc1cc(-c2ncc(C)cn2)cc2c(NCC(=O)N3CCOCC3)ncnc12` [Example 160, 2-((8-methoxy-6-(5-methylpyrimidin-2-yl)quinazolin-4-yl)amino)-1-morpholinoethan-1-one] came in with an IC50 of 3.16 to 31.6 µM.

Compound `COc1cc(-n2nccc2C)cc2c(N[C@H](C)c3ccc(C)nn3)ncnc12` [Example 102, (R)-8-methoxy-6-(5-methyl-1H-pyrazol-1-yl)-N-(1-(6-methylpyridazin-3-yl)ethyl)quinazolin-4-amine] returned a half-inhibitory concentration (IC50) of 3.16 to 31.6 µM.

Take `COc1cc(-c2ccc(F)cn2)cc2c(NCc3noc(C)n3)ncnc12` [Example 132, 6-(5-Fluoropyridin-2-yl)-8-methoxy-N-((5-methyl-1,2,4-oxadiazol-3-yl)methyl)quinazolin-4-amine]: the 50% inhibitory concentration (IC50) is 0.316 to 3.16 µM.

`COc1cc(-c2ncc(C)cn2)cc2c(NCc3nc(C)no3)ncnc12` [Example 156, 8-Methoxy-N-((3-methyl-1,2,4-oxadiazol-5-yl)methyl)-6-(5-methylpyrimidin-2-yl)quinazolin-4-amine] showed a concentration for half-maximal inhibition (IC50) of 0.316 to 3.16 µM.

One may read the IC50 as the concentration that inhibits the measured activity by half. Read a high IC50 as a need for much substance.

The values above are taken from US12466820B2, “Amino quinazoline derivatives as P2X3 inhibitors” (CHIESI FARMACEUTICI S.p.A., priority 2019, dated 2025).
